How the values were obtained:
Ht-29 cells = assay: Resazurin reduction viability assay; format: cell-based, human; conditions: Ht-29, 1, 5, and 25 µM, 48 h, n = 3
HeLa S-3 cells = assay: Resazurin reduction viability assay; conditions: HeLa, 1, 5, and 25 µM, 48 h, n = 3
Procedure: For the resazurin-to-resorufin reduction assays, cells were grown in a 96-well plate for 120 min at 37 °C with resazurin solution (0.15 mg/ml) (Sigma-Aldrich, Milan, Italy). The fluorescence of resorufin was quantified on a PerkinElmer EnSpire 2,300 Multilabel Reader (ex 550 nm/em 590 nm). For the Apo-ONE assay, 25,000 cells were seeded in a 96-well white polystyrene microplate (Corning, United States of America). After 24 h, cells were treated for 36 h with oxaliplatin and oxaliplatin+SS35. Cells were then lysed and subjected to caspase-3/7 (DEVDase) activity assays by using the Apo-ONE Homogeneous Caspase-3/7 Assay (Promega, Madison, United States of America) according to the manufacturer’s instructions. After 30 min of incubation, fluorescence was recorded in the linear phase of the kinetics with a Synergy H1 plate reader (BioTek, Winooski, United States of America). For the trypan blue viability assay, cells were harvested, pelleted at 1500 rcf, and incubated for 5 min with a PBS/0.4% Trypan Blue solution (Gibco). At least 300 cells were counted for each condition.
First, Ht-29 and HeLa cells were treated with increasing doses (0.02, 0.04, and 0.06 μg/ml) of SS28, SS35, and SS36 for 48 h, and cell viability was assessed by resazurin reduction assays (Figure 6A). […]

[1] = Determination of PMO peptide functionalization by absorbance; format: physicochemical; conditions: UV absorbance in ethanol, Phe (257 nm) and Fmoc-Ala (267 nm) calibration curves, PMO baseline subtracted; estimated
Procedure: To quantify the amounts of peptides on the PMO, a Varian Cary 50 bio benchtop spectrophotometer in the range of 200–800 nm with a 1-nm step was used ([Faura et al. 2021]). The calibration curves were determined by preparing five solutions at known concentrations of Phenylalanine and Fmoc-Alanine used as standards. Briefly, a stock solution of 5 mM Phe in absolute ethanol was diluted to the final concentrations of 0.2 mM, 0.5 mM, […], 2 mM, and 5 mM. A standard solution of 52.7 μM Fmoc-Alanine (Ala) in absolute ethanol was diluted to the concentrations of 20 μM, 10 μM, 5 μM, and 2 μM. The fluorescence signals were recorded for Phenylalanine (Phe: λex 240 nm and λem 282 nm) ([Lakowicz, 2006]) and Fmoc-Ala (λex […] and λem 280 nm) ([Pappas et al., 2014]) and plotted against their respective sample concentrations. […]
The absorbance values of peptides linked to PMOs were adjusted to account for potential interference caused by PMOs, which can scatter or absorb light in the visible and UV ranges, leading to inaccuracies in absorbance measurements of chromophores. The absorbance spectrum of PMO was subtracted from the absorbance spectrum of the sample containing the peptide@PMO. In the region of absorption of the chromophore, we observed a linear and well-defined relationship between the absorbance of PMO and wavelength. […]

| Molecule | cytotoxicity of free peptide compared with nanoparticle-conjugated peptide (Ht-29 cells) | cytotoxicity of free peptide compared with nanoparticle-conjugated peptide (HeLa S-3 cells) | Peptide/PMO: peptide amount binding for each milligram of PMO [1] |
| --- | --- | --- | --- |
| N=C(N)NCCC[C@@H]1NC(=O)[C@H](CCCCN)NC(=O)[C@@H](Cc2ccccc2)NC(=O)[C@H](CC(=O)O)NC(=O)CNC1=O [p28, cyclic[RGDfK]] | significantly attenuated | significantly attenuated | – |
| FmocAVPI@PMO [Fmoc-protected AVPI peptide conjugated to PMO, apparently the precursor of SS36] | – | – | 0.074 mg |

— article PMC10497945, “Dual-targeting peptides@PMO, a mimetic to the pro-apoptotic protein Smac/DIABLO for selective activation of apoptosis in cancer cells” (Frontiers in Pharmacology, 2023)
